Results published in patent US20240124483A1, “Methods for the Treatment of Fibrotic Disease” (SHY Therapeutics, LLC, priority 2021, published 2024).
Like-named read-outs stand apart in the source and are kept apart here.

Legend:
[1] = biological target: KRas G12C mutant (Homo sapiens (Human), UniProt P01116, G12C); assay: Ras GTP Binding Domain Inhibition Assay, KRas G12C mutant
In short: (§1)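 His-tagged KRas proteins coated on nickel plates overnight at 4° C in Tris buffer (pH 7.4 or 7.0, MgCl2, DTT); compounds at 20 μM final (or serial dilutions for IC50) for 3 h at room temperature, ±Sos (residues 556-1049) in final hour. Bound Cy3- or Cy5-GTP (100 nM, 45 min) read by fluorescence after washing.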

[2] = biological target: KRas G12D mutant (Homo sapiens (Human), UniProt P01116, G12D); assay: Ras GTP Binding Domain Inhibition Assay, KRas G12D mutant; settings: for inhibition at 20 µM: Table 7; for KRas G12D mutant + SOS: % inh. / KRas G12D mutant: % inh.: 20 uM, Table 8
KRas G12D mutant, sequence (P01116 other isoform, or with tags, fused parts or gaps G12D): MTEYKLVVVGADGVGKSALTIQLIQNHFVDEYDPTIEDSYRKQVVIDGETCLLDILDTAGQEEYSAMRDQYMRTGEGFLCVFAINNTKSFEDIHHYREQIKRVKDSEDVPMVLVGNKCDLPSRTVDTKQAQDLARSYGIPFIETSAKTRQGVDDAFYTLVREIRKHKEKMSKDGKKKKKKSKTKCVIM
In short: as §1

[3] = biological target: Rho-A (Homo sapiens (Human), UniProt P61586); assay: Ras GTP Binding Domain Inhibition Assay, Rho-A; settings: without SOS, read-out: Rho-A: % inh.
Rho-A, sequence (P61586 whole entry, species assumed, the tested form may be a part): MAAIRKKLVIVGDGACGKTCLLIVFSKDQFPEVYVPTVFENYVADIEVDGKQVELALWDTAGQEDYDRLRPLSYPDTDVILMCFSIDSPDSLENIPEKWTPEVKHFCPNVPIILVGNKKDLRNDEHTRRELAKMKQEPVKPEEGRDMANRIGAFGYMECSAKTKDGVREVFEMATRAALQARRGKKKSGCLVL
In short: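 Fluorescent GTP binding to plate-captured His-tagged Ras: compound 20 μM (or dilution series for IC50), 3 h RT, ±Sos GEF 10-30 μg/mL last hour; then 100 nM Cy3/Cy5-GTP 45 min RT, wash ×3, read bound label.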

[4] = tested on: MAPK p38; assay: MAPK p38 Activation Assay in Panc-1 (western blot); format: cell-based, Human; parameters: key: Y = yes; N = No; settings: at 10 μM
In short: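 Cells serum-starved overnight in 0.5% FBS, then compound 3 h at 37° C (10 μM or serial dilutions for IC50; 0.3% DMSO). TGF-b1 10 ng/ml stimulation followed: 1 h for Panc-1, 20 min for C2C12. Phospho-p38 (Thr180/Tyr182) measured by western blot of lysates.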

[5] = + SOS, read-out: KRas G12C mutant + SOS: % inh.
[6] = without SOS, read-out: KRas G12C mutant: % inh.
[7] = + SOS, read-out: KRas G12D mutant + SOS: % inh.
[8] = without SOS, read-out: KRas G12D mutant: % inh.

KRas G12C mutant, sequence (P01116 other isoform, or with tags, fused parts or gaps G12C): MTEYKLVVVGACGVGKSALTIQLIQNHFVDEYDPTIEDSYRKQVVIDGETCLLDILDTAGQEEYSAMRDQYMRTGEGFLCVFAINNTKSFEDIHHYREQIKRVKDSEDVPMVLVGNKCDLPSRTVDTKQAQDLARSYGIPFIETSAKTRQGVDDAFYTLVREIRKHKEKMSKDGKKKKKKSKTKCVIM

| inhibition at 20 µM [1, 5] [%] | inhibition at 20 µM [1, 6] [%] | inhibition at 20 µM [2, 7] [%] | KRas G12D mutant + SOS: % inh. ([2]; + SOS) | inhibition at 20 µM [2, 8] [%] | KRas G12D mutant: % inh. ([2]; without SOS) | inhibition at 20 µM [3] [%] | Compound | Activation of MAPK p38 in PANC-1 [4] |
| --- | --- | --- | --- | --- | --- | --- | --- | --- |
| 76 to 100 | 76 to 100 | 76 to 100 | D (D = 76-100% inhibition) | 76 to 100 | D (D = 76-100% inhibition) | 76 to 100 | Cc1c(-c2ccn(C(C)C)n2)sc2nc(-c3nccn3C)nc(NCCN3CCOCC3)c12 [Compound 22, 6-(1-Isopropyl-1H-pyrazol-3-yl)-5-methyl-2-(1-methyl-1H-imidazol-2-yl)-N-(2-morpholinoethyl)thieno[2,3-d]pyrimidin-4-amine] | Y |
| 76 to 100 | 46 to 75 | 76 to 100 | D (D = 76-100% inhibition) | 76 to 100 | D (D = 76-100% inhibition) | 46 to 75 | Cc1c(-c2ccn(C(C)C)n2)sc2nc(-c3nccn3C)nc(NCCN3CCS(=O)(=O)CC3)c12 [Compound 23, 4-(2-((6-(1-Isopropyl-1H-pyrazol-3-yl)-5-methyl-2-(1-methyl-1H-imidazol-2-yl)thieno[2,3-d]pyrimidin-4-yl)amino)ethyl)thiomorpholine 1,1-dioxide] | Y |
| 76 to 100 | 76 to 100 | 76 to 100 | D (D = 76-100% inhibition) | 46 to 75 | C (C = 46-75% inhibition) | 46 to 75 | CO[C@H]1CNC[C@@H](Nc2nc(-c3nccn3C)nc3sc(-c4ccn(C(C)C)n4)cc23)C1 [Compound 28, 6-(1-Isopropyl-1H-pyrazol-3-yl)-N-((3S,5R)-5-methoxypiperidin-3-yl)-2-(1-methyl-1H-imidazol-2-yl)thieno[2,3-d]pyrimidin-4-amine] | Y |
| 76 to 100 | 46 to 75 | 46 to 75 | C (C = 46-75% inhibition) | 46 to 75 | C (C = 46-75% inhibition) | 76 to 100 | COCCn1c(-c2nccn2C)nc2sc(-c3ccn(C(C)C)n3)c(C)c2c1=O [Compound 29, 6-(1-Isopropyl-1H-pyrazol-3-yl)-3-(2-methoxyethyl)-5-methyl-2-(1-methyl-1H-imidazol-2-yl)thieno[2,3-d]pyrimidin-4(3H)-one] | Y |
| 0 | 1 to 25 | 0 | 0 (0 = 0% inhibition) | 0 | 0 (0 = 0% inhibition) | 0 | COCCOc1nc(-c2nccn2C)nc2sc(-c3ccn(C(C)C)n3)c(C)c12 [Compound 30, 6-(1-Isopropyl-1H-pyrazol-3-yl)-4-(2-methoxyethoxy)-5-methyl-2-(1-methyl-1H-imidazol-2-yl)thieno[2,3-d]pyrimidine] | N |
| 0 | 0 | 0 | 0 (0 = 0% inhibition) | 0 | 0 (0 = 0% inhibition) | 0 | COCCCn1c(-c2nccn2C)nc2sc(-c3ccn(C(C)C)n3)c(C)c2c1=O [Compound 31, 6-(1-Isopropyl-1H-pyrazol-3-yl)-3-(3-methoxypropyl)-5-methyl-2-(1-methyl-1H-imidazol-2-yl)thieno[2,3-d]pyrimidin-4(3H)-one] | N |
| 46 to 75 | 46 to 75 | 46 to 75 | C (C = 46-75% inhibition) | 46 to 75 | C (C = 46-75% inhibition) | 76 to 100 | COCCCOc1nc(-c2nccn2C)nc2sc(-c3ccn(C(C)C)n3)c(C)c12 [Compound 32, 6-(1-Isopropyl-1H-pyrazol-3-yl)-4-(3-methoxypropoxy)-5-methyl-2-(1-methyl-1H-imidazol-2-yl)thieno[2,3-d]pyrimidine] | N |
| 1 to 25 | 0 | 0 | 0 (0 = 0% inhibition) | 0 | 0 (0 = 0% inhibition) | 0 | COCCCCn1c(-c2nccn2C)nc2sc(-c3ccn(C(C)C)n3)c(C)c2c1=O [Compound 33, 6-(1-Isopropyl-1H-pyrazol-3-yl)-3-(4-methoxybutyl)-5-methyl-2-(1-methyl-1H-imidazol-2-yl)thieno[2,3-d]pyrimidin-4(3H)-one] | N |
| 1 to 25 | 0 | 0 | 0 (0 = 0% inhibition) | 1 to 25 | A (A = 1-25% inhibition) | 0 | COc1cc(Cn2c(-c3nccn3C)nc3sc(-c4ccn(C(C)C)n4)c(C)c3c2=O)ncn1 [Compound 35, 6-(1-Isopropyl-1H-pyrazol-3-yl)-3-((6-methoxypyrimidin-4-yl)methyl)-5-methyl-2-(1-methyl-1H-imidazol-2-yl)thieno[2,3-d]pyrimidin-4(3H)-one] | N |
| 1 to 25 | 0 | 0 | 0 (0 = 0% inhibition) | 0 | 0 (0 = 0% inhibition) | 0 | COCCCn1c(-c2nccn2C)nc2sc(-c3ccn(C(C)C)n3)c(-c3ccccc3)c2c1=O [Compound 36, 6-(1-Isopropyl-1H-pyrazol-3-yl)-3-(3-methoxypropyl)-2-(1-methyl-1H-imidazol-2-yl)-5-phenylthieno[2,3-d]pyrimidin-4(3H)-one] | Y |
| 0 | 0 | 0 | 0 (0 = 0% inhibition) | 0 | 0 (0 = 0% inhibition) | 0 | COCCCOc1nc(-c2nccn2C)nc2sc(-c3ccn(C(C)C)n3)c(-c3ccccc3)c12 [Compound 37, 6-(1-Isopropyl-1H-pyrazol-3-yl)-4-(3-methoxypropoxy)-2-(1-methyl-1H-imidazol-2-yl)-5-phenylthieno[2,3-d]pyrimidine] | Y |

| Compound | inhibition at 20 µM [1, 5] [%] | inhibition at 20 µM [1, 6] [%] | inhibition at 20 µM [2, 7] [%] | KRas G12D mutant + SOS: % inh. ([2]; + SOS) | inhibition at 20 µM [2, 8] [%] | KRas G12D mutant: % inh. ([2]; without SOS) | inhibition at 20 µM [3] [%] | Activation of MAPK p38 in PANC-1 [4] |
| --- | --- | --- | --- | --- | --- | --- | --- | --- |
| COCCCCOc1nc(-c2nccn2C)nc2sc(-c3ccn(C(C)C)n3)c(C)c12 [Compound 34, 6-(1-Isopropyl-1H-pyrazol-3-yl)-4-(4-methoxybutoxy)-5-methyl-2-(1-methyl-1H-imidazol-2-yl)thieno[2,3-d]pyrimidine] | 1 to 25 | 0 | 0 | 0 (0 = 0% inhibition) | 1 to 25 | A (A = 1-25% inhibition) | 0 | N |
